Where two headings read alike, the source gives them in different places.
Molecular target: RORγ (Homo sapiens, UniProt P51449)
Assay: RORγ Gal4 Reporter Gene Assay
Assay type: cell-based
Conditions: for IC50: 293T cells
Protocol: Determination of a ligand mediated Gal4 promoter driven transactivation to quantify ligand binding to RORγ was performed as follows: DNA encoding three different RORγ protein fragments was cloned into vector pCMV-BD (Stratagene). Expression was under control of a CMV promoter and as fusion to the DNA-binding domain of the yeast protein GAL4. Other vectors used were pFR-Luc (Stratagene) as regulated reporter plasmid. pFR-Luc contains a synthetic promoter with five tandem repeats of the yeast GAL4 binding sites that control expression of the Photinus pyralis (American firefly) luciferase gene. In order to improve experimental accuracy the plasmid pRL-CMV was cotransfected. pRL-CMV contains the constitutive CMV promoter, controlling the expression of the Renilla reniformis luciferase.
The medium is supplemented with 10% fetal bovine serum, 0.1 mM nonessential amino acids, 1 mM sodium pyruvate, 1% Glutamax and 100 units Penicilin/[…] per mL at 37° C. in 5% CO2.
For the assay, […] were plated per well in 96 well plates in 100 μL per well, incubated over night at 37° C. in 5% CO2. […] About 4 h after addition of the transfection solution, fresh Minimal Essential Medium (MEM, same composition as used for plating cells, but without serum) was added. Then compound stocks, prediluted in MEM (same composition as used for plating cells) were added (final vehicle concentration not exceeding 0.1%).
All experiments were done at least in triplicates.

Sequence of RORγ (P51449 whole entry, looked up, the tested form may be a part): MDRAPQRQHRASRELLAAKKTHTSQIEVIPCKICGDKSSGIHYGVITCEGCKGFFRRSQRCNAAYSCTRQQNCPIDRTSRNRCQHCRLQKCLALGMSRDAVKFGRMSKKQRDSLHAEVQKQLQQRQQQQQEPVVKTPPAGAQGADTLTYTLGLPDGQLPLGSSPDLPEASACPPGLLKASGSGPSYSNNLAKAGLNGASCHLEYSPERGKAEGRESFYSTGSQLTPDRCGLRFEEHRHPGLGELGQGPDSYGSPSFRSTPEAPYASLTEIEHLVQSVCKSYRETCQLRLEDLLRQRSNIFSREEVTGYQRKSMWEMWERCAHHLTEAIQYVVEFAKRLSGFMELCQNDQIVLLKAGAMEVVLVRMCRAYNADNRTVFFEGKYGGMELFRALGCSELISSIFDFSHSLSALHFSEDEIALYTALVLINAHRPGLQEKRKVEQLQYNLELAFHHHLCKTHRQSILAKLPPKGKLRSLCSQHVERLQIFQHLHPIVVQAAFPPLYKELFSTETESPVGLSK

SMILES | IC50 (firefly (FF) luciferase, read-out: pIC50 (FF) (converted)) | IC50 (renilla normalised (RENnorm) luciferase, read-out: pIC50 (REN) (converted)) | pIC50 (FF) | pIC50 (REN)
CC(C)(C)NS(=O)(=O)c1ccc(-c2sc(C(=O)N[C@H]3C[C@H](C(=O)O)C3)nc2Cc2ccccc2)c2ccccc12 [300/18] | 31.6 nM | 25.1 nM |  | 
CC1CCN(C(=O)c2nc(C(=O)NCC(C)(C)O)sc2-c2ccc(S(=O)(=O)N[C@@H](C)C(F)(F)F)c3ccccc23)CC1 [304/12] |  |  | nt/7.7/7.7 | nt/7.7/7.7
CC(C)(C)NS(=O)(=O)c1ccc(-c2sc(C(=O)NC3CCS(=O)(=O)CC3)nc2-c2cccc(C#N)c2)c2ccccc12 [300/15] |  |  | nt/7.3/7.4 | nt/7.3/7.4
C[C@H](NC(=O)c1cc(-c2sc(C(=O)NCC(C)(C)c3nnn[nH]3)nc2CC2CCCCC2)cc(C2(C)CC2)c1)C(F)(F)F [6/62] |  |  | nt/7.5/7.5 | nt/7.5/7.5
CCC(C)(C)NS(=O)(=O)c1ccc(-c2sc(C(=O)N[C@H]3C[C@H](C(=O)O)C3)nc2C(=O)N2CCC(C)CC2)c(Cl)c1C [Example 302, trans-3-(5-(2-Chloro-3-methyl-4-(N-(tert-pentyl)sulfamoyl)phenyl)-4-(4-methylpiperidine-1-carbonyl)thiazole-2-carboxamido)cyclobutanecarboxylic acid] |  |  | nt/7.3/7.5 | nt/7.3/7.5
CCCc1nc(C(=O)NC2CCS(=O)(=O)CC2)sc1-c1ccc(S(=O)(=O)NC(C)(C)C)c2ccccc12 [300/7] |  |  | nt/7.7/7.9 | nt/7.7/7.9
CC(C)(C)NS(=O)(=O)c1ccc(-c2sc(C(=O)NC3CCS(=O)(=O)CC3)nc2-c2cccnc2)c2ccccc12 [300/12] |  |  | nt/6.1/6.2 | nt/6.1/6.2
CC(C)(C)NS(=O)(=O)c1ccc(-c2sc(C(=O)NC3CCS(=O)(=O)CC3)nc2CC2CCC(F)(F)CC2)c2ccccc12 [21/12] |  |  | nt/8.0/8.2 | nt/8.0/8.2
CCC(C)(C)NS(=O)(=O)c1ccc(-c2sc(C(=O)NC3CCS(=O)(=O)CC3)nc2C(=O)N2CCC(C)CC2)c(Cl)c1C [Example 301, 5-(2-Chloro-3-methyl-4-(N-(tert-pentyl)sulfamoyl)phenyl)-N-(1,1-dioxidotetrahydro-2H-thiopyran-4-yl)-4-(4-methylpiperidine-1-carbonyl)thiazole-2-carboxamide] |  |  | nt/7.8/7.9 | nt/7.8/7.9
CC(C)(C#N)CNC(=O)c1nc(CC2CCCCC2)c(-c2ccc(S(=O)(=O)NC(C)(C)C)c3ccccc23)s1 [6/58] |  |  | nt/8.7/8.7 | nt/8.7/8.7
CCC(C)(C)NS(=O)(=O)c1ccc(-c2sc(C(=O)NC3CCS(=O)(=O)CC3)nc2C(=O)N2CCC(C)CC2)c2ccccc12 [304/14] |  |  | nt/7.5/7.6 | nt/7.5/7.6
CC(C)(C)NS(=O)(=O)c1ccc(-c2sc(C(=O)NC3CCS(=O)(=O)CC3)nc2CC2CCC2)c2ccccc12 [21/16] |  |  | nt/8.4/8.4 | nt/8.4/8.4
C[C@H](NS(=O)(=O)c1ccc(-c2sc(C(=O)NCC(C)(C)O)nc2CC2CCC2)c(C(F)(F)F)c1)C(F)(F)F [21/20] |  |  | nt/7.7/7.7 | nt/7.7/7.7
CC(C)(O)CNC(=O)c1nc(C(=O)N2CCCCC2(C)C)c(-c2ccc(S(=O)(=O)NC(C)(C)C)c3ccccc23)s1 [304/6] |  |  | nt/6.6/6.8 | nt/6.6/6.8
CCN(C(C)(C)C)S(=O)(=O)c1ccc(-c2sc(C(=O)NCC(C)(C)O)nc2C(=O)N2CCC(C)CC2)c2ccccc12 [304/20] |  |  | nt/7.4/7.7 | nt/7.4/7.7
CC(C)(C)NS(=O)(=O)c1ccc(-c2sc(C(=O)NC3CCS(=O)(=O)CC3)nc2-c2cccc(Cl)c2)c2ccccc12 [300/14] |  |  | nt/8.2/8.2 | nt/8.2/8.2
CC1(NC(=O)c2cc(-c3sc(C(=O)NC4CCS(=O)(=O)CC4)nc3CC3CCCCC3)cc(C3(C)CC3)c2)COC1 [10/4] |  |  | nt/7.9/7.9 | nt/7.9/7.9
